# Source: article PMC10866072, “Design, synthesis, molecular modelling and biological evaluation of novel 6-amino-5-cyano-2-thiopyrimidine derivatives as potent anticancer agents against leukemia and apoptotic inducers” (Journal of Enzyme Inhibition and Medicinal Chemistry, 2024)
# Assays:
# PC-3 = assay type: cell-based; settings: one dose 10^-5 M, 48 h
# LOX IMVI = assay type: cell-based; settings: one dose 10^-5 M, 48 h
# SNB-19 = assay type: cell-based; settings: one dose 10^-5 M, 48 h
# OVCAR-4 = assay type: cell-based; settings: one dose 10^-5 M, 48 h
# IGROV1 = assay type: cell-based; settings: 48 h; for % growth: one dose 10^-5 M
# A549/ATCC = assay type: cell-based; settings: one dose 10^-5 M, 48 h
# SR = assay type: cell-based; settings: one dose 10^-5 M, 48 h
# [1] = system: full NCI 60 cell lines panel; settings: for activity on all 60 cancer cell lines tested (in words): one dose; for Mean % growth: one dose 10^-5 M, mean over all cell lines
# MDA-MB-231/ATCC = assay type: cell-based; settings: one dose 10^-5 M, 48 h
# SF-295 = assay type: cell-based; settings: one dose 10^-5 M, 48 h
# SK-OV-3 = assay type: cell-based; settings: one dose 10^-5 M, 48 h
# M14 = assay type: cell-based; settings: one dose 10^-5 M, 48 h
# ACHN = assay type: cell-based; settings: one dose 10^-5 M, 48 h
# UACC-257 = assay type: cell-based; settings: one dose 10^-5 M, 48 h
# MDA-MB-435 = assay type: cell-based; settings: one dose 10^-5 M, 48 h
# HCC-2998 = assay type: cell-based; settings: one dose 10^-5 M, 48 h
# TK-10 = assay type: cell-based; settings: one dose 10^-5 M, 48 h
# 786-0 = assay type: cell-based; settings: one dose 10^-5 M, 48 h
# HT29 = assay type: cell-based; settings: 48 h; for % growth: one dose 10^-5 M
# DU-145 = assay type: cell-based; settings: one dose 10^-5 M, 48 h
# HOP-62 = assay type: cell-based; settings: one dose 10^-5 M, 48 h
# HCT-116 = assay type: cell-based; settings: one dose 10^-5 M, 48 h
# RPMI-8226 = assay type: cell-based; settings: one dose 10^-5 M, 48 h
# SK-MEL-5 = assay type: cell-based; settings: one dose 10^-5 M, 48 h
# NCI-H460 = assay type: cell-based; settings: one dose 10^-5 M, 48 h
# CCRF-CEM = assay type: cell-based; settings: one dose 10^-5 M, 48 h
# RXF 393 = assay type: cell-based; settings: one dose 10^-5 M, 48 h
# SW-620 = assay type: cell-based; settings: one dose 10^-5 M, 48 h
# MOLT-4 = assay type: cell-based; settings: one dose 10^-5 M, 48 h
# UACC-62 = assay type: cell-based; settings: one dose 10^-5 M, 48 h
# KM12 = assay type: cell-based; settings: one dose 10^-5 M, 48 h
# HL-60(TB) = assay type: cell-based; settings: one dose 10^-5 M, 48 h
# SK-MEL-28 = assay type: cell-based; settings: one dose 10^-5 M, 48 h
# HCT-15 = assay type: cell-based; settings: one dose 10^-5 M, 48 h
# OVCAR-8 = assay type: cell-based; settings: one dose 10^-5 M, 48 h
# NCI-H522 = assay type: cell-based; settings: one dose 10^-5 M, 48 h
# OVCAR-3 = assay type: cell-based; settings: one dose 10^-5 M, 48 h
# U251 = assay type: cell-based; settings: 48 h; for % growth: one dose 10^-5 M
# SK-MEL-2 = assay type: cell-based; settings: one dose 10^-5 M, 48 h
# T-47D = assay type: cell-based; settings: one dose 10^-5 M, 48 h
# SF-539 = assay type: cell-based; settings: one dose 10^-5 M, 48 h
# MDA-MB-468 = assay type: cell-based; settings: one dose 10^-5 M, 48 h
# OVCAR-5 = assay type: cell-based; settings: one dose 10^-5 M, 48 h
# EKVX = assay type: cell-based; settings: one dose 10^-5 M, 48 h
# NCI-H226 = assay type: cell-based; settings: one dose 10^-5 M, 48 h
# K-562 = assay type: cell-based; settings: 48 h; for % growth: one dose 10^-5 M
# SN12C = assay type: cell-based, human; settings: one dose 10^-5 M, 48 h
# CAKI-1 = assay type: cell-based; settings: one dose 10^-5 M, 48 h
# SF-268 = assay type: cell-based; settings: one dose 10^-5 M, 48 h
# MALME-3M = assay type: cell-based; settings: one dose 10^-5 M, 48 h
# HS 578T = assay type: cell-based; settings: one dose 10^-5 M, 48 h, HS 578T
# HOP-92 = assay type: cell-based; settings: one dose 10^-5 M, 48 h
# A498 = assay type: cell-based; settings: one dose 10^-5 M, 48 h
# SNB-75 = assay type: cell-based; settings: one dose 10^-5 M, 48 h
# UO-31 = assay type: cell-based; settings: one dose 10^-5 M, 48 h
# MCF7 = assay type: cell-based; settings: one dose 10^-5 M, 48 h
# NCI-H23 = assay type: cell-based; settings: one dose 10^-5 M, 48 h
# [2] = Homo sapiens, read-out: % growth
molecule,measurement,setting,value
"3-Amino-4–(4-chlorophenyl)-1H-pyrazolo[3,4-d] pyrimidine-6-thiol [Compound 3b]",% growth,PC-3,101.93%
same,% growth,LOX IMVI,103.05%
same,% growth,SNB-19,92.80%
same,% growth,OVCAR-4,98.54%
same,% growth,IGROV1,96.70%
same,% growth,A549/ATCC,100.87%
same,% growth,SR,91.21%
same,activity on all 60 cancer cell lines tested (in words),[1],weak activity
same,Mean % growth,[1]; 48 h,100.23%
same,% growth,MDA-MB-231/ATCC,98.65%
same,% growth,SF-295,89.90%
same,% growth,SK-OV-3,106.45%
same,% growth,M14,107.99%
same,% growth,ACHN,102.63%
same,% growth,UACC-257,106.44%
same,% growth,MDA-MB-435,98.24%
same,% growth,HCC-2998,100.20%
same,% growth,TK-10,114.88%
same,% growth,786-0,99.34%
same,% growth,HT29,95.28%
same,% growth,DU-145,101.49%
same,% growth,HOP-62,106.23%
same,% growth,HCT-116,102.04%
same,% growth,RPMI-8226,90.84%
same,% growth,SK-MEL-5,95.82%
same,% growth,NCI-H460,107.05%
same,% growth,CCRF-CEM,92.49%
same,% growth,RXF 393,103.75%
same,% growth,SW-620,102.78%
same,% growth,MOLT-4,92.74%
same,% growth,UACC-62,100.93%
same,% growth,KM12,100.80%
same,% growth,HL-60(TB),82.04%
same,% growth,SK-MEL-28,107.34%
same,% growth,HCT-15,103.06%
same,% growth,OVCAR-8,104.96%
same,% growth,NCI-H522,84.30%
same,% growth,OVCAR-3,113.31%
same,% growth,U251,101.98%
same,% growth,SK-MEL-2,108.20%
same,% growth,T-47D,86.49%
same,% growth,SF-539,98.83%
same,% growth,MDA-MB-468,106.46%
same,% growth,OVCAR-5,108.35%
same,% growth,EKVX,96.85%
same,% growth,NCI-H226,107.48%
same,% growth,K-562,94.65%
same,% growth,SN12C,97.55%
same,% growth,CAKI-1,93.47%
same,% growth,SF-268,103.53%
same,% growth,MALME-3M,100.39%
same,% growth,HS 578T,111.10%
same,% growth,HOP-92,100.46%
same,% growth,A498,109.21%
same,% growth,SNB-75,94.54%
same,% growth,UO-31,92.69%
same,% growth,MCF7,94.30%
same,% growth,NCI-H23,103.30%
4-Amino-6–(4-chlorophenyl)-2-mercaptopyrimidine-5-carboximidohydrazide [Compound 2b],% growth,PC-3,111.23%
same,% growth,LOX IMVI,109.11%
same,% growth,SNB-19,98.41%
same,% growth,OVCAR-4,103.90%
same,% growth,IGROV1,103.95%
same,% growth,A549/ATCC,110.21%
same,% growth,SR,81.00%
same,activity on all 60 cancer cell lines tested (in words),[1],weak activity
same,Mean % growth,[1]; 48 h,105.07%
same,% growth,MDA-MB-231/ATCC,100.62%
same,% growth,SF-295,93.17%
same,% growth,SK-OV-3,123.58%
same,% growth,M14,111.66%
same,% growth,ACHN,102.02%
same,% growth,UACC-257,114.55%
same,% growth,MDA-MB-435,96.65%
same,% growth,HCC-2998,105.50%
same,% growth,TK-10,113.67%
same,% growth,786-0,99.27%
same,% growth,HT29,98.85%
same,% growth,DU-145,106.23%
same,% growth,HOP-62,113.92%
same,% growth,HCT-116,119.61%
same,% growth,RPMI-8226,94.54%
same,% growth,SK-MEL-5,100.02%
same,% growth,NCI-H460,107.93%
same,% growth,CCRF-CEM,100.09%
same,% growth,RXF 393,119.00%
same,% growth,SW-620,103.87%
same,% growth,MOLT-4,99.19%
same,% growth,UACC-62,100.76%
same,% growth,KM12,100.03%
same,% growth,HL-60(TB),98.64%
same,% growth,SK-MEL-28,108.56%
same,% growth,HCT-15,103.81%
same,% growth,OVCAR-8,110.09%
same,% growth,NCI-H522,98.92%
same,% growth,OVCAR-3,112.26%
same,% growth,U251,105.90%
same,% growth,SK-MEL-2,109.65%
same,% growth,T-47D,96.25%
same,% growth,SF-539,103.32%
same,% growth,MDA-MB-468,102.27%
same,% growth,OVCAR-5,103.26%
same,% growth,EKVX,100.22%
same,% growth,NCI-H226,121.25%
same,% growth,K-562,98.62%
same,% growth,SN12C,99.89%
same,% growth,CAKI-1,99.31%
same,% growth,SF-268,108.46%
same,% growth,MALME-3M,109.72%
same,% growth,HS 578T,128.54%
same,% growth,HOP-92,107.66%
same,% growth,A498,116.23%
same,% growth,SNB-75,99.29%
same,% growth,UO-31,93.82%
same,% growth,MCF7,98.64%
same,% growth,NCI-H23,107.36%
N#Cc1c(N)nc(S)nc1-c1ccc(Cl)cc1 [Compound 1b],percent cell growth at 10 µM,PC-3; Homo sapiens,56.4%
same,activity at 10 µM,LOX IMVI; [2],79.2%
same,activity at 10 µM,SNB-19; [2],60.4%
same,% growth at 10 µM,OVCAR-4; Homo sapiens,76.2%
same,activity at 10 µM,"IGROV1; Homo sapiens, IGROV-1, one dose 10^-5 M, read-out: % growth",57.9%
same,% growth at 10 µM,A549/ATCC; Homo sapiens,86%
same,percent cell growth at 10 µM,SR; Homo sapiens,66.9%
same,activity at 10 µM,"[1]; Homo sapiens, 60 cell, 48 h, read-out: Mean % growth",75.7%
same,% growth at 10 µM,MDA-MB-231/ATCC; Homo sapiens,53.7%
same,% cell growth at 10 µM,SF-295; Homo sapiens,76.2%
same,% growth at 10 µM,SK-OV-3; Homo sapiens,84.3%
same,% growth at 10 µM,M14; Homo sapiens,99.9%
same,% growth at 10 µM,ACHN; Homo sapiens,77.2%
same,percent cell growth at 10 µM,UACC-257; Homo sapiens,102%
same,activity at 10 µM,MDA-MB-435; [2],86.5%
same,% growth at 10 µM,HCC-2998; Homo sapiens,99.6%
same,% cell growth at 10 µM,TK-10; Homo sapiens,126%
same,% growth at 10 µM,786-0; Homo sapiens,85%
same,% growth at 10 µM,"HT29; Homo sapiens, HT-29, one dose 10^-5 M",91.1%
same,% growth at 10 µM,DU-145; Homo sapiens,86.8%
same,% growth at 10 µM,HOP-62; Homo sapiens,74.6%
same,activity at 10 µM,HCT-116; [2],76.5%
same,% growth at 10 µM,RPMI-8226; Homo sapiens,47.2%
same,activity at 10 µM,SK-MEL-5; [2],85.9%
same,activity at 10 µM,NCI-H460; [2],86.7%
same,% cell growth at 10 µM,CCRF-CEM; Homo sapiens,65.5%
same,activity at 10 µM,"RXF 393; Homo sapiens, RXF 393, 48 h, read-out: % growth",55.5%
same,% growth at 10 µM,SW-620; Homo sapiens,87.3%
same,activity at 10 µM,MOLT-4; [2],50.7%
same,% growth at 10 µM,UACC-62; Homo sapiens,66.8%
same,% growth at 10 µM,KM12; Homo sapiens,82%
same,% growth at 10 µM,HL-60(TB); Homo sapiens,69.6%
same,% cell growth at 10 µM,SK-MEL-28; Homo sapiens,95.6%
same,activity at 10 µM,HCT-15; [2],86%
same,% growth of cells at 10 µM,OVCAR-8; Homo sapiens,82.2%
same,% growth at 10 µM,NCI-H522; Homo sapiens,58.7%
same,% growth at 10 µM,OVCAR-3; Homo sapiens,93.4%
same,% growth at 10 µM,"U251; Homo sapiens, U-251, one dose 10^-5 M",81.6%
same,% growth at 10 µM,SK-MEL-2; Homo sapiens,96.5%
same,activity at 10 µM,"T-47D; Homo sapiens, T47D, read-out: % growth",58.3%
same,% growth at 10 µM,SF-539; Homo sapiens,71.9%
same,percent cell growth at 10 µM,MDA-MB-468; Homo sapiens,81.1%
same,percent cell growth at 10 µM,OVCAR-5; Homo sapiens,91.6%
same,% cell growth at 10 µM,EKVX; Homo sapiens,61%
same,% growth at 10 µM,NCI-H226; Homo sapiens,78.7%
same,% growth at 10 µM,"K-562; Homo sapiens, K562, one dose 10^-5 M",68.1%
same,% growth at 10 µM,SN12C; Homo sapiens,75.7%
same,% growth at 10 µM,"CAKI-1; Homo sapiens, CAKI-1, 48 h",52%
same,activity at 10 µM,SF-268; [2],69.7%
same,% growth at 10 µM,MALME-3M; Homo sapiens,99.6%
same,activity at 10 µM,HS 578T; [2],74%
same,% growth at 10 µM,HOP-92; Homo sapiens,43.5%
same,% growth at 10 µM,A498; Homo sapiens,77.4%
same,% growth at 10 µM,SNB-75; Homo sapiens,42.2%
same,% cell growth at 10 µM,"UO-31; Homo sapiens, UO-31, 48 h",45.4%
same,activity at 10 µM,MCF7; [2],67.7%
same,activity at 10 µM,NCI-H23; [2],85.5%
